Assay results published in ChEMBL document CHEMBL5370691, “Novel Pyrido[3,2-d]pyrimidines as HPK1 Inhibitors for Treating Cancer and Inflammatory and Autoimmune Diseases” (ACS Med Chem Lett, 2023).
pIC50: −log10 of the molar value.

biological target: Mitogen-activated protein kinase kinase kinase kinase 1 (Homo sapiens, UniProt Q92918); assay: Inhibition of N-terminal GST-tagged full-length human HPK1 expressed in baculovirus infected Sf21 cells using MBP as substrate preincubated for 15 mins followed by substrate addition and measured after 120 mins in presence of ATP by ADP-glo assay
Sequence (Q92918 whole entry): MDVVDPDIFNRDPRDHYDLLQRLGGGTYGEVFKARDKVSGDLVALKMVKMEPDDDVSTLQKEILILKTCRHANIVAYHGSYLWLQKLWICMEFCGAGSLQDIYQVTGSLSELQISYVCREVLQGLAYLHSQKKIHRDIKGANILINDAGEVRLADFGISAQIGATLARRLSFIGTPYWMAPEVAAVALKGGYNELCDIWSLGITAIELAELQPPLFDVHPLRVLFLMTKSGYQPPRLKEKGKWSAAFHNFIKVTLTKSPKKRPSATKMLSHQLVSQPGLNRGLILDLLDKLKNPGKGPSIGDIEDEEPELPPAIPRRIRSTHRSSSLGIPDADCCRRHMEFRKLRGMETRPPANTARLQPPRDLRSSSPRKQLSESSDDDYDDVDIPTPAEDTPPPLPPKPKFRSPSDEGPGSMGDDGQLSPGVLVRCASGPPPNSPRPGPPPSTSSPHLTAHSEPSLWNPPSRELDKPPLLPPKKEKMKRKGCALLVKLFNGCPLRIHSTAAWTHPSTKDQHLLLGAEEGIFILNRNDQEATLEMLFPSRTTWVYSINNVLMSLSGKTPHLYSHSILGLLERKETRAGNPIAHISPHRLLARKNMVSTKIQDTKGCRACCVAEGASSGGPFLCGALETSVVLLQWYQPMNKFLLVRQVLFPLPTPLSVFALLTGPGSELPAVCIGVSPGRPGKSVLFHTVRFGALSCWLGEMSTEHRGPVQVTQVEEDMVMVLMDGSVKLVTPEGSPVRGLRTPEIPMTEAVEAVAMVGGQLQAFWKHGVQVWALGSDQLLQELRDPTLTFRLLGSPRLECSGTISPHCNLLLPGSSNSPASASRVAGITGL

pIC50, > 7.00:
NC(=O)c1cc(-c2ccc(F)cc2)nc2c(N[C@H]3CCCNC3)ncnc12
CS(=O)(=O)Cc1ccc(-c2cc(C(N)=O)c3ncnc(N[C@H]4CCCNC4)c3n2)cc1
COc1ccccc1-c1cc(C(N)=O)c2ncnc(N[C@H]3CCCNC3)c2n1
NC(=O)c1cc(-c2ccc(C3(O)CC3)cc2)nc2c(N[C@H]3CCCNC3)ncnc12
CN1CCN(c2ccc(-c3cc(C(N)=O)c4ncnc(N[C@H]5CCCNC5)c4n3)cn2)CC1
COCCOc1ccc(-c2cc(C(N)=O)c3ncnc(N[C@H]4CCCNC4)c3n2)c(C#N)c1
